One molecule from PMC7567103 (Nature Communications, 2020) can be followed below.

Format in all cases: cell-based
For assay [1], the target named is T1, GHRHR K182A (Homo sapiens, UniProt Q02643, K182A).
T1 construct: GHRHR(23-423)-; HA signal peptide (replaces native signal M1-G22) (N); expressed in transfected cells; host or cells: HEK 293T, pcDNA3.1, transient
Put plainly: cAMP accumulation, K182A. The note with it: mean ± SEM, n ≥ 3. An excerpt:
(§1) Fig. 2 Molecular recognition of GHRH by GHRHR and comparison of that with LA-PTH–PTH1R and GLP-1–GLP-1R. a Detailed interaction between GHRH and the TMD pocket of GHRHR with hydrogen bonds shown as dotted lines. b, c Pairwise comparison of GHRH bound to GHRHR with GLP-1 and LA-PTH in complex with their corresponding receptors, showing the relative positions of peptide ligands. Lime green, GHRHR; blue, GHRH; red, PTH1R and LA-PTH; purple, GLP-1R and GLP-1. d–f The effects of mutation in the ligand-binding pocket on cAMP accumulation. cAMP levels were measured in wild-type (WT) receptor and alanine mutants in ECL1, 2, and 3 (d), TM1, 2, and 3 (e), and TM5, 6, and 7 (f). cAMP signals were normalized to the maximum response of WT and concentration–response curves were analyzed using a three-parameter logistic equation. Data shown are means ± S.E.M. of at least three independent experiments (n = 3–5), conducted in triplicate. Source data are provided as a Source data file.
(§2) GHRH-stimulated cAMP accumulation was measured by a LANCE Ultra cAMP kit (PerkinElmer). […] After 1 h RT incubation, TR-FRET signals (excitation: 320 nm, emission: 615 and 665 nm) were measured by an EnVision (PerkinElmer).

Assay [2] concerns the target T2, GHRHR R357A (Homo sapiens, UniProt Q02643, R357A).
T2 construct: GHRHR(23-423)-; HA signal peptide (replaces native signal M1-G22) (N); expressed in transfected cells; host or cells: HEK 293 T
Put plainly: cAMP accumulation, R357A. The note with it: mean ± SEM, n ≥ 3.
Excerpt: as §1, §2
(Cyclic AMP is a second messenger, typically raised through Gs and lowered through Gi signalling.)

For assay [3], the target named is T3, GHRHR(23-423) (WT) (Homo sapiens, UniProt Q02643).
T3 construct: 24 h after transfection with GHRHR(23-423), GHRHR(23-405), GHRHR(23-405)-LgBiT-2MBP, or HA-Flag-GHRHR (WT and mutants); HA signal peptide (replaces native signal M1-G22) (N); expressed in transfected cells; host or cells: HEK 293 T
T3 sequence (Q02643 23-423): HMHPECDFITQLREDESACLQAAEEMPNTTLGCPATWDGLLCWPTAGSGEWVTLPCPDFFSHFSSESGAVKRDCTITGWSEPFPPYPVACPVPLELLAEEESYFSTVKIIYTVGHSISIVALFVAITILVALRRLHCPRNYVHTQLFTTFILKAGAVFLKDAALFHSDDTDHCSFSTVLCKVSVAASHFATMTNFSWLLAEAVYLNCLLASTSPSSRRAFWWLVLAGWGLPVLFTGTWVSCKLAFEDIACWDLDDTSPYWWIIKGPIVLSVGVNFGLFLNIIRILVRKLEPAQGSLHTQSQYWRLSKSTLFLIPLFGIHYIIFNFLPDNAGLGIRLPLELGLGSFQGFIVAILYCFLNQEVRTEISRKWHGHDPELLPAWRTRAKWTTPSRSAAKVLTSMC
Put plainly: cAMP accumulation, construct GHRHR(23-423) (WT) (Supplementary Fig. 2b). The note with it: HEK 293T; mean ± SEM, n = 8-10. As for the experimental part:
GHRH-stimulated cAMP accumulation was measured by a LANCE Ultra cAMP kit (PerkinElmer). Briefly, 24 h after transfection with GHRHR(23-423), GHRHR(23-405), GHRHR(23-405)-LgBiT-2MBP, or HA-Flag-GHRHR (WT and mutants), HEK 293 T cells (3000/well in 384-well white plates, PerkinElmer) were digested by 0.2% (w/v) EDTA and 5 μL stimulation buffer (HBSS supplemented with 5 mM HEPES, 0.5 mM IBMX, and 0.1% (w/v) BSA, pH 7.4). Different concentrations (5 μL) of GHRH were then added and the stimulation lasted for 30 min at RT. The reaction was stopped by adding 5 μL Eu-cAMP tracer and 5 μL ULight-anti-cAMP. After 1 h RT incubation, TR-FRET signals (excitation: 320 nm, emission: 615 and 665 nm) were measured by an EnVision (PerkinElmer).
223 Supplementary Ta b l e 1. Effects of GHRH-mediated cAMP accumulation.
Receptor cAMP Cell surface expression Binding
pEC50 Emax (% WT) (% WT) pIC50 […]
225 to determine pEC50 and Emax values. pEC50 is the negative logarithm of the molar
226 concentration of agonist that induced half the maximal response. Cell surface […]
228 Flag antibody (Sigma-Aldrich, 1:300); Donkey anti-Mouse Alexa Fluor 488-
229 conjugated secondary antibody, (ThermoFisher Scientific, 1:1000)] on the […]
231 Binding data were analyzed using a three-parameter logistic equation to […]
234 determine statistical difference. *P<0.01; ND, not determined.

T1 sequence (Q02643 23-423 K182A): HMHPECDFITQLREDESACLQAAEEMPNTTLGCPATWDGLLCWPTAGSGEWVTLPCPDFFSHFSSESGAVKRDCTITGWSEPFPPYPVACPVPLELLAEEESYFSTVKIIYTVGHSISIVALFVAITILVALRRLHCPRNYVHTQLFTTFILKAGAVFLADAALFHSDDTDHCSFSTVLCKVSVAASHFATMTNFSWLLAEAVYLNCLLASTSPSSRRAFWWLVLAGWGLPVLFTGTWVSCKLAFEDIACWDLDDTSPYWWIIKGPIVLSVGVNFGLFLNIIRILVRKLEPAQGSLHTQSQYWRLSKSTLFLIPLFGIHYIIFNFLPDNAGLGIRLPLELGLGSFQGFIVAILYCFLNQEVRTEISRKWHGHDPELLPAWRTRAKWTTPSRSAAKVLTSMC
T2 sequence (Q02643 23-423 R357A): as the sequence (Q02643 23-423 K182A) above, with A160K, R335A counted along it

By EC50 is commonly meant the concentration that produces a half-maximal response. As for `CC[C@H](C)[C@H](NC(=O)[C@H](C)NC(=O)[C@H](CC(=O)O)NC(=O)[C@H](C)NC(=O)[C@@H](N)Cc1ccc(O)cc1)C(=O)N[C@@H](Cc1ccccc1)C(=O)N[C@H](C(=O)N[C@@H](CC(N)=O)C(=O)N[C@@H](CO)C(=O)N[C@@H](Cc1ccc(O)cc1)C(=O)N[C@@H](CCCNC(=N)N)C(=O)N[C@@H](CCCCN)C(=O)N[C@H](C(=O)N[C@@H](CC(C)C)C(=O)NCC(=O)N[C@@H](CCC(N)=O)C(=O)N[C@@H](CC(C)C)C(=O)N[C@@H](CO)C(=O)N[C@@H](C)C(=O)N[C@@H](CCCNC(=N)N)C(=O)N[C@@H](CCCCN)C(=O)N[C@@H](CC(C)C)C(=O)N[C@@H](CC(C)C)C(=O)N[C@@H](CCC(N)=O)C(=O)N[C@@H](CC(=O)O)C(=O)N[C@H](C(=O)N[C@@H](CCSC)C(=O)N[C@@H](CO)C(=O)N[C@@H](CCCNC(=N)N)C(=O)N[C@@H](CCC(N)=O)C(=O)N[C@@H](CCC(N)=O)C(=O)NCC(=O)N[C@@H](CCC(=O)O)C(=O)N[C@@H](CO)C(=O)N[C@@H](CC(N)=O)C(=O)N[C@@H](CCC(N)=O)C(=O)N[C@@H](CCC(=O)O)C(=O)N[C@@H](CCCNC(=N)N)C(=O)NCC(=O)N[C@@H](C)C(=O)N[C@@H](CCCNC(=N)N)C(=O)N[C@@H](C)C(=O)N[C@@H](CCCNC(=N)N)C(=O)N[C@@H](CC(C)C)C(N)=O)[C@@H](C)CC)C(C)C)[C@@H](C)O` [GHRH, Growth hormone-releasing hormone], the EC50 in assay [1] is 39.8 nM; in assay [2], 135 nM; in assay [3] it was 0.631 nM. For the same molecule, the Emax in assay [1] turned out to be 100.02±1.40 % WT; in assay [2], 60.05±5.19 % WT; in assay [3], 100 % WT.
